Test results reported in article PMC11212140, “Molecular Bidents with Two Electrophilic Warheads as a New Pharmacological Modality” (ACS Central Science, 2024).

Assays:
Assay in all cases: KiNativ profiling in H3255 cells
Format in all cases: cell-based, human
GCK = system: T1, GCK; details: 2.5 µM
T1 construct: purchased ActivX Biosciences (KiNativ)
Experimental: (§1) treatment. Cell viability was determined by using CellTiter-Glo (Promega #G7571) according to the manufacturer’s instructions, measuring luminescence using an Envision plate-reader (PerkinElmer Inc.). Dose-response curves were generated using non-linear regression curve fit in GraphPad Prism 9.2.0(GraphPad Software).
(§2) Cellular target engagement assays
(§3) After 6 hours treatment, cells were pelleted, washed with PBS once and lysed with IP lysis buffer (25mMTris-HCl pH 7.4, 150mM NaCl, 1 mM EDTA, 1% NP-40 and 5% glycerol) (Thermo Fisher Scientific, Cat#87788) containing protease/phosphatase inhibitor cocktail (Roche). The protein concentrations were measured by BCA analysis (Pierce). Cell lysates were incubated with 1 μM of biotin conjugated probe (bio-Osimertinib or bio-ZNL-0013) at 4 ℃ overnight, and incubated for 3 more hours at room temperature. Lysates with probe were then incubated with streptavidin beads (Thermo Fisher, #20349) for 2 hours at 4 ℃. The protein-probe complexes on the beads were then subjected to immunoblotting.
(§4) H3255 cells were plated with 6.5x10^6 per condition in fresh media in 15 cm plates and treated the 80% confluency for 2 hours with DMSO or 2.5 μM of ZNL-0056. To harvest cells, plates were washed 3 times with cold PBS, then collected by scraping into 4 mL of cold PBS containing protease and phosphatase inhibitors. Cells were pelleted by centrifugation at 1350 g at 4 ℃ for 5 minutes and immediately frozen in liquid nitrogen. The frozen samples were sent to ActivX Biosciences (La Jolla, CA) for the remainder of the KiNativ profiling experiment4.
(§5) Protein expression and purification
(§6) Human EGFR kinase domain (residues 696-1022) with T790M and V948R mutations was cloned with an N-terminal, protease cleavable His -GST tag. Recombinant protein was expressed in SF9 insect cells using baculovirus generated from the pFastBac system (Thermo Fisher) .
(§7) Briefly, cells at a density of ~2x10^6 cells/mL were infected with 1% (v/v) virus stock and grown for ~72 hours before harvesting and freezing the cell pellet . Infected cells were lysed in buffer A (50 mM Tris pH 8.0, 500 mM NaCl, 5% glycerol, 0.5 mM Tris(2-carboxyethyl)phosphine [TCEP]), ultracentrifuged at >200,000 rcf for 1 h, and the supernatant flo wed through Ni-NTA resin by gravity. The resin was washed with buffer A supplemented with 40 mM imidazole by […]

MST4, YSK1 = details: 2.5 µM; Lys2; DIKAANVLLSEQGDVK
Experimental: as §1, §2, §3, §4, §5, §6, §7

DGKA = system: T2, DGKA; details: 2.5 µM; ATP; IDPVPNTHPLLVFVNPKSGGK
T2 construct: purchased ActivX Biosciences (KiNativ)
Experimental: as §1, §2, §3, §4, §5, §6, §7

MST1, MST2 = details: 2.5 µM; Lys2; DIKAGNILLNTEGHAK
Experimental: as §1, §2, §3, §4, §5, §6, §7

PCTAIRE2 = system: T3, PCTAIRE2; details: 2.5 µM; Lys2; DLKPQNLLINEK
T3 construct: purchased ActivX Biosciences (KiNativ)
Experimental: as §1, §2, §3, §4, §5, §6, §7

PKCa, PKCg = details: 2.5 µM; Other; NLIPMDPNGLSDPYVKLK
Experimental: as §1, §2, §3, §4, §5, §6, §7

MAP3K3 = system: T4, MAP3K3; details: 2.5 µM; Lys1; ELASKQVQFDPDSPETSKEVSALECEIQLLK
T4 construct: purchased ActivX Biosciences (KiNativ)
Experimental: as §1, §2, §3, §4, §5, §6, §7

AKT1 = system: T5, AKT1; details: 2.5 µM; ATP Loop; GTFGKVILVK
T5 construct: purchased ActivX Biosciences (KiNativ)
Experimental: as §1, §2, §3, §4, §5, §6, §7

PIP4K2B = system: T6, PIP4K2B; details: 2.5 µM; ATP; AKDLPTFKDNDFLNEGQK
T6 construct: purchased ActivX Biosciences (KiNativ)
Experimental: as §1, §2, §3, §4, §5, §6, §7

CaMK1a = system: T7, CaMK1a; details: 2.5 µM; Lys1; LVAIKCIAK
T7 construct: purchased ActivX Biosciences (KiNativ)
Experimental: as §1, §2, §3, §4, §5, §6, §7

HER2/ErbB2 = system: T8, HER2/ErbB2; details: 2.5 µM
T8 construct: purchased ActivX Biosciences (KiNativ)
Experimental: as §1, §2, §3, §4, §5, §6, §7

MARK3, MARK4 = details: 2.5 µM; Lys1; EVAIKIIDK
Experimental: as §1, §2, §3, §4, §5, §6, §7

PIP5K3 = system: T9, PIP5K3; details: 2.5 µM; ATP; GGKSGAAFYATEDDRFILK
T9 construct: purchased ActivX Biosciences (KiNativ)
Experimental: as §1, §2, §3, §4, §5, §6, §7

PKN1 = system: T10, PKN1; details: 2.5 µM; Lys1; VLLSEFRPSGELFAIKALK
T10 construct: purchased ActivX Biosciences (KiNativ)
Experimental: as §1, §2, §3, §4, §5, §6, §7

MSK1 domain1 = system: T11, MSK1 domain1; details: 2.5 µM; Lys2; DIKLENILLDSNGHVVLTDFGLSK
T11 construct: MSK1 domain1; purchased ActivX Biosciences (KiNativ)
Experimental: as §1, §2, §3, §4, §5, §6, §7

IRE1 = system: T12, IRE1; details: 2.5 µM; Lys2; DLKPHNILISMPNAHGK
T12 construct: purchased ActivX Biosciences (KiNativ)
Experimental: as §1, §2, §3, §4, §5, §6, §7

NEK9 = system: T13, NEK9; details: 2.5 µM
T13 construct: purchased ActivX Biosciences (KiNativ)
Experimental: as §1, §2, §3, §4, §5, §6, §7

STLK6 = system: T14, STLK6; details: 2.5 µM; Lys1; HTPTGTLVTIKITNLENCNEER
T14 construct: purchased ActivX Biosciences (KiNativ)
Experimental: as §1, §2, §3, §4, §5, §6, §7

MAST3 = system: T15, MAST3; details: 2.5 µM; Lys2; DLKPDNLLITSLGHIK
T15 construct: purchased ActivX Biosciences (KiNativ)
Experimental: as §1, §2, §3, §4, §5, §6, §7

PIK3CB = system: T16, PIK3CB; details: 2.5 µM; ATP; VFGEDSVGVIFKNGDDLRQDMLTLQMLR
T16 construct: purchased ActivX Biosciences (KiNativ)
Experimental: as §1, §2, §3, §4, §5, §6, §7

CK1g1, CK1g2, CK1g3 = details: 2.5 µM; ATP Loop; KIGCGNFGELR
Experimental: as §1, §2, §3, §4, §5, §6, §7

FRK = system: T17, FRK; details: 2.5 µM
T17 construct: purchased ActivX Biosciences (KiNativ)
Experimental: as §1, §2, §3, §4, §5, §6, §7

ROCK1, ROCK2 = details: 2.5 µM; Lys2; DVKPDNMLLDK
Experimental: as §1, §2, §3, §4, §5, §6, §7

CaMK2d = system: T18, CaMK2d; details: 2.5 µM; Lys1; IPTGQEYAAKIINTKK
T18 construct: purchased ActivX Biosciences (KiNativ)
Experimental: as §1, §2, §3, §4, §5, §6, §7

[1] = Activation Loop, LLDIDETEYHADGGKVPIK
[2] = Lys1, LGSGQFGEVWEGLWNNTTPVAVKTLKPGSMDPNDFLR

| SMILES | Inhibition (GCK; Lys1, DTVTSELAAVKIVK) [%] | Inhibition (GCK; Lys2, DIKGANLLLTLQGDVK) [%] | Inhibition (MST4, YSK1) [%] | Inhibition (DGKA) [%] | Inhibition (MST1, MST2) [%] | Inhibition (PCTAIRE2) [%] | Inhibition (PKCa, PKCg) [%] | Inhibition (MAP3K3) [%] | Inhibition (AKT1) [%] | Inhibition (PIP4K2B) [%] | Inhibition (CaMK1a) [%] | Inhibition (HER2/ErbB2; [1]) [%] | Inhibition (HER2/ErbB2; Lys1, GIWIPDGENVKIPVAIKVLR) [%] | Inhibition (MARK3, MARK4) [%] | Inhibition (PIP5K3) [%] | Inhibition (PKN1) [%] | Inhibition (MSK1 domain1) [%] | Inhibition (IRE1) [%] | Inhibition (NEK9; Activation Loop, LGDYGLAKK) [%] | Inhibition (NEK9; Lys1, RTEDDSLVVWKEVDLTR) [%] | also measured |
| --- | --- | --- | --- | --- | --- | --- | --- | --- | --- | --- | --- | --- | --- | --- | --- | --- | --- | --- | --- | --- | --- |
| C=CC(=O)Nc1cc(C(=O)Nc2nc3cccc(C)c3n2[C@@H]2CCCCN(C(=O)C=C)C2)cs1 [ZNL-0056] | -6.8 | 0.9 | -9.0 | 14.0 | 16.1 | -15.1 | -17.5 | -6.3 | -1.6 | 16.6 | 5.1 | 65.9 | 60.7 | 16.2 | 20.7 | 8.5 | 10.0 | -29.1 | -6.5 | 3.2 | Inhibition (NEK9; Lys2, DIKTLNIFLTK): 4.4%; Inhibition (STLK6): 16.7%; Inhibition (MAST3): 3.9%; Inhibition (PIK3CB): -22.3%; Inhibition (CK1g1, CK1g2, CK1g3): 13.6%; Inhibition (FRK; Activation Loop, HEIKLPVK): -77.6%; Inhibition (FRK; [2]): 7.6%; Inhibition (ROCK1, ROCK2): -10.4%; Inhibition (CaMK2d): -4.1% |
| C=CC(=O)Nc1cc(Nc2nccc(-c3cn(C)c4ccccc34)n2)c(OC)cc1N(C)CCN(C)C [Osimertinib, osimertinib, reference compound] | -23.8 | 15.4 | -8.7 | -5.7 | 17.9 | 2.6 | -21.6 | 10.8 | -19.5 | -4.2 | 7.0 | 82.4 | 89.1 | -12.5 | 49.0 | -12.2 | -10.4 | 13.6 | -11.0 | -18.7 | Inhibition (NEK9; Lys2, DIKTLNIFLTK): -12.2%; Inhibition (STLK6): 12.6%; Inhibition (MAST3): -21.8%; Inhibition (PIK3CB): -1.4%; Inhibition (CK1g1, CK1g2, CK1g3): -14.3%; Inhibition (FRK; Activation Loop, HEIKLPVK): -27.9%; Inhibition (FRK; [2]): 12.8%; Inhibition (ROCK1, ROCK2): -1.6%; Inhibition (CaMK2d): -3.1% |
